{"source": "patent US10213407B2", "about": "“Compounds and methods for inhibiting production of trimethylamine” (The Procter & Gamble Company, priority 2015, dated 2019)", "test_system": "Proteus mirabilis 29906 (Pm) lysate", "assay": "Inhibition of formation of TMA from choline in Proteus mirabilis lysate (d9-choline to d9-TMA, LC-MS/MS)", "assay_type": "biochemical", "conditions": "conversion of choline to TMA; Pm lysate 1.5 mg/mL protein, 50 μM d9-choline chloride, 37° C., two hours; read-out: TMA Inhibition (IC50, mol/L)", "protocol": "EXAMPLE 2 Assay for identifying and characterizing compounds that inhibit the formation of TMA from choline.\nThis example provides an exemplary assay for identifying and characterizing compounds that inhibit the formation of TMA from choline.\nProteus mirabilis 29906 (Pm) strain was grown aerobically overnight in 500 ml of Nutrient Broth media (3 g/L beef extract, 5 g/L Peptone; Difco #234000) at 37° C. with 250 rpm shaking. The biomass was pelleted by centrifugation at 6000×g for 12 minutes at 4° C. The cell pellet was suspended in 240 mL of ice-cold 1× Phosphate Buffered Saline (Ca^2+ and Mg^2+ free). Ninety micrograms of Lysozyme (Sigma #L6876 Lot #SLBG8654V; Sigma-Aldrich Corp., St. Louis, Mo.) was added and incubated with 320 rpm shaking for 30 minutes at 4° C. Lysis was achieved via French press with a 4° C. prechilled 1″ diameter chamber at 1000 psi (high ratio; internal PSI equivalent ˜16000). The lysate was centrifuged at 6,000×g for 12 minutes at 4° C. to pellet extra debris. A protein concentration of the centrifuged lysate supernatant was determined by a BCA Protein Assay Kit (Pierce #23225; Thermo Fisher Scientific Co., Waltham, Mass.) and protein concentration adjusted to 3 mg/ml with 1× Dulbecco's phosphate buffered saline (DPBS). The centrifuged supernatant lysate was aliquoted into 20 mL volumes and stored frozen at −80° C.\nProteus mirabilis 29906 (Pm) lysate was diluted to 1.5 mg/mL protein with 1×DPBS. Choline chloride (CC) (1M stock) was added to reach a final concentration of 2.5 mM choline chloride. The mixture was mixed using a vortex mixer for approximately 15 seconds and incubated at 37° C. for 22 hours. After incubation, 150 μL of CC-treated Pm lysate was dispensed into a deep-well plate (polypropylene, 2 mL volume, Corning Axygen catalogue #P-DW-20-C). Candidate IC50 compounds from TABLE 1 and vehicle control (respective vehicle control of DMSO or water), or control compounds (IC50 control, 8-Quinolinol hemisulfate salt (Sigma Catalog #55100)) were added at a 1:100 dilution (e.g., 1.5 μL per well). The plates were agitated on a plate shaker for 1 minute. d9-choline chloride (1.5 μL of 5 mM) was added to all wells to reach a final d9-choline chloride concentration of 50 μM.\nThe plates were again agitated on a plate shaker for 1 minute and incubated at 37° C. for two hours. After incubation, 1.5 μL of formic acid was added to each well (final concentration=1% formic acid). The plates were agitated on a plate shaker for 1 minute and placed on ice. Cell lysate samples were spiked with stable isotope labeled internal standard (22.5 μL of 6 μg/mL of 13C3-trimethylamine (13C3-TMA) was added to each sample), then d9-trimethylamine (d9-TMA), trimethylamine (TMA) and 13C3-TMA were isolated from the lysate after protein precipitation as described below. Acetonitrile acidified with 0.1% formic acid, 600 μL, was added to each sample which was then centrifuged (2,100 g for 20 minutes) to pellet the protein and other precipitates. The supernatant was removed and analyzed as described below. The TMA, d9-TMA and 13C3-TMA in the isolated supernatant samples were subjected to gradient High Performance Liquid Chromatography (HPLC) analysis on a Waters Atlantis HILIC Silica column, from Waters Corp., Milford, Mass., (2.1×50 mm, 3 μm particles) with an Atlantis Silica HILIC Sentry guard column, from Waters Corp., Milford, Mass., (100 Å, 3 μm, 2.1 mm×10 mm), 10 mM ammonium formate in water with 0.1% formic acid as mobile phase A and 0.1% formic acid in acetonitrile as mobile phase B. Detection and quantitation was achieved by tandem mass spectrometry operating under multiple reaction monitoring (MRM) MS/MS conditions (m/z 60.1→44.1 for TMA, m/z 69.1→49.1 for d9-TMA, m/z 63.0→46.1 for 13C3-TMA). TMA and d9-TMA calibration standards (STD), prepared in 80/20/0.1% acetonitrile/Water/Formic Acid, were used to construct a regression curve by plotting the response (peak area TMA/peak area 13C3-TMA) versus concentration for each standard. […]"}
{"smiles": "CC[N+](C)(CC)CCCN=C=S", "note": "[Compound 2, 3-Isothiocyanato-N,N-diethyl-N-methylpropanaminium iodide]", "values": [{"measurement": "IC50", "value": 10.6, "unit": "µM"}]}
{"smiles": "CCOC(=O)C(=O)C[N+](C)(C)CCN=C=S", "note": "[Compound 5, N-(Ethoxypropyl-2,3-dione)-2-isothiocyanato-N,N-dimethylethan-1-aminium bromide]", "values": [{"measurement": "IC50", "value": 769, "unit": "µM"}]}
{"smiles": "CCOC(=O)C(=O)C[N+](C)(C)CCCN=C=S", "note": "[Compound 6]", "values": [{"measurement": "IC50", "value": 14.4, "unit": "µM"}]}
{"smiles": "CC[N+](CC)(CCBr)CCCN=C=S", "note": "[Compound 7, N-(2-Bromoethyl)-3-isothiocyanato-N,N-diethylpropan-1-aminium triflate]", "values": [{"measurement": "IC50", "value": 18.2, "unit": "µM"}]}
{"smiles": "CC[N+](CC)(CC#N)CCCN=C=S", "note": "[Compound 9, N-Cyanomethyl-3-isothiocyanato-N,N-diethylpropan-1-aminium bromide]", "values": [{"measurement": "IC50", "value": 60.5, "unit": "µM"}]}
